{"source": "patent US9605064B2", "about": "“Methods and compositions for treatment of skin disorders” (AbbVie Biotechnology Ltd, priority 2006, dated 2017)", "key": {"[1]": {"tested_on": "patients with moderate to severe psoriasis", "test": "Adverse events, open-label extension of REVEAL", "quoted_text": "Laboratory parameters and adverse events were also recorded."}, "[2]": {"tested_on": "patients with moderate to severe chronic plaque psoriasis", "test": "Physician's Global Assessment (PGA), Phase II trial with 48-week extension", "type": "in vivo, human", "conditions": "for Percentage of Patients Achieving PGA “Clear” or “Almost Clear”: modified ITT, NRI; for PGA “Clear”/“Almost Clear”: after 60 weeks of 40 mg eow", "description": "Efficacy outcome measures included PASI and PGA.\nThe Physician's Global Assessment (PGA), which was used as a clinical endpoint in the trial, was used to determine the MCID for DLQI. The PGA is a seven point scale used to measure disease severity from a physician's evaluation. Scoring under the PGA ranges from 1 (Clear) to 7 (Severe). Categories for the 7-point scale include the following: • Severe: very marked plaque elevation, scaling and/or erythema; • Moderate to severe: marked plaque elevation, scaling and/or erythema; • Moderate: moderate plaque elevation, scaling and/or erythema; • Mild to moderate: intermediate between moderate and mild; • Mild: slight plaque elevation, scaling and/or erythema; • Almost clear: intermediate between mild and clear; and • Clear: no signs of psoriasis (post-inflammatory hypopigmentation or hyperpigmentation could be present). Scoring regions were from 1 (clear) to 7 (severe). PGA was assessed at screening; baseline; week 1; week 2; week 4; week 8; and week 12/early termination; and follow up. The same investigator performed the assessment for each patient throughout the study. Statistical methods were performed according to the following summary. Analyses were performed on blinded data, combining results from all three groups. Changes in the PGA from baseline to week 12 were correlated with changes in DLQI total score.\nThe PGA is a seven-point scale used to measure the severity of disease at the time of the physician's evaluation. The seven disease categories are: • Severe: very marked plaque elevation, scaling, and/or erythema • Moderate to Severe: marked plaque elevation, scaling, and/or erythema • Moderate: moderate plaque elevation, scaling, and/or erythema • Mild to moderate: intermediate between moderate and mild • Mild: slight plaque elevation, scaling, and/or erythema • Almost Clear: intermediate between mild and clear • Clear: no signs of psoriasis (post-inflammatory hypopigmentation or hyperpigmentation could be present).\nThe PGA scale is scored from 1 (Clear) to 7 (Severe). The PGA was assessed by the investigator at screening, baseline, and Weeks 1, 2, 4, 8, 12/Early Termination, and the follow-up visit. Each study site was to make every attempt to have the same investigator perform these assessments throughout the study for each patient.\nThe PGA is a 7-point scale used to measure disease severity from a physician's evaluation. The categories for the 7-point scale include: Severe: very marked plaque elevation, scaling, and/or erythema; Moderate to severe: marked plaque elevation, scaling, and/or erythema; Moderate: moderate plaque elevation, scaling, and/or erythema; Mild to moderate: intermediate between moderate and mild; Mild: slight plaque elevation, scaling, and/or erythema; Almost clear: intermediate between mild and clear; and Clear: no signs of psoriasis (post-inflammatory hypopigmentation or hyperpigmentation could be present). The scoring ranges are from 1 (Clear) to 7 (Severe). PGA was assessed at screening, baseline, Week 1, Week 2, Week 4, Week 8, Week 12/early termination, and follow-up. The same investigator performed this assessment for each patient throughout the study."}, "[3]": {"tested_on": "patients with severe psoriasis who were non-responders to high-dosage etanercept", "test": "PASI response, open-label adalimumab in non-responders to high-dosage etanercept", "type": "in vivo, human", "method": "Details on clinical course and adverse events were recorded, along with measurements of PASI and Dermatology Life Quality Index (DLQI) at baseline and Weeks 2, 4, 8, and 12.\nThis was an open-label prospective evaluation of adalimumab (HUMIRA®, Abbott Laboratories, Abbott Park, Ill., USA). Patients who were non-responders to etanercept were recruited from the Severe Psoriasis Clinic at St John's Institute of Dermatology in London. […] Inclusion criteria included male and female patients more than 18 years of age with plaque psoriasis (Table 98). The study was approved by St Thomas' Research Ethics Committee, and informed consent was obtained from all participants.\nThe study period was 12 weeks. […] Patients were able to withdraw from the study at any stage. They were permitted to continue topical treatments at stable dosages throughout the study, but could not use concomitant systemic therapy for psoriasis.\nAt each clinical visit PASI, DLQI, and percentage body surface area (% BSA) affected were assessed and recorded. In addition, patients received medical assessments together with monitoring laboratory investigations (FIG. 11).\nThe secondary efficacy endpoint was PASI 75 response rate at Week 12."}}, "note": "Where “and” joins values, the source holds several entries; their conditions need not be identical. Identical values can stand only once. Marks after values point to notes of the source that are not given here.", "data": [{"substance": "Adalimumab: a human anti-TNF mAb, described in U.S. Pat. No. 6,090,382 as D2E7 (HUMIRA, Abbott Laboratories)", "values": [{"measurement": "AEs leading to withdrawal, Patients (%)", "setting": "[1]; First 24 weeks of OLE", "value": 1, "unit": "%"}, {"measurement": "Any AE, Patients (%)", "setting": "[1]; First 24 weeks of OLE", "value": 47, "unit": "%"}, {"measurement": "Lymphoma, Patients (%)", "setting": "[1]; First 24 weeks of OLE", "value": 0, "unit": "%"}, {"measurement": "Malignancy, Patients (%)", "setting": "[1]; First 24 weeks of OLE", "value": 1, "unit": "%"}, {"measurement": "Non-melanoma skin cancer, Patients (%)", "setting": "[1]; First 24 weeks of OLE", "value": 0, "unit": "%"}, {"measurement": "Serious AE, Patients (%)", "setting": "[1]; First 24 weeks of OLE", "value": 3, "unit": "%"}, {"measurement": "Nasopharyngitis, Patients (%)", "setting": "[1]; First 24 weeks of OLE, AEs occurring ≧5% of patients", "value": 5, "unit": "%"}, {"measurement": "patients with serious adverse events", "setting": "[1]; between Months 12-18", "value": 2.6, "unit": "%"}, {"measurement": "Percentages of Patients with PGA “Clear” or “Almost Clear”", "setting": "[2]; Week 12, 40 mg eow (Table 78)", "value": 51, "unit": "%"}, {"measurement": "Percentages of Patients with PGA “Clear” or “Almost Clear”", "setting": "[2]; Week 12, 40 mg weekly (Table 78)", "value": 81, "unit": "%"}, {"measurement": "Percentage of Patients Achieving PGA “Clear” or “Almost Clear”", "setting": "[2]; Week 12, adalimumab 40 mg eow", "value": "49* %"}, {"measurement": "Percentage of Patients Achieving PGA “Clear” or “Almost Clear”", "setting": "[2]; Week 12, adalimumab 40 mg weekly", "value": "76* %"}, {"measurement": "Percentage of Patients Achieving PGA “Clear” or “Almost Clear”", "setting": "[2]; Week 24, adalimumab 40 mg eow", "value": 64, "unit": "%"}, {"measurement": "Percentage of Patients Achieving PGA “Clear” or “Almost Clear”", "setting": "[2]; Week 24, adalimumab 40 mg weekly", "value": 72, "unit": "%"}, {"measurement": "Percentage of Patients Achieving PGA “Clear” or “Almost Clear”", "setting": "[2]; Week 24, placebo/adalimumab 40 mg eow (adalimumab from Week 12)", "value": 45, "unit": "%"}, {"measurement": "Percentage of Patients Achieving PGA “Clear” or “Almost Clear”", "setting": "[2]; Week 36, adalimumab 40 mg eow", "value": 60, "unit": "%"}, {"measurement": "Percentage of Patients Achieving PGA “Clear” or “Almost Clear”", "setting": "[2]; Week 36, adalimumab 40 mg weekly", "value": 68, "unit": "%"}, {"measurement": "Percentage of Patients Achieving PGA “Clear” or “Almost Clear”", "setting": "[2]; Week 36, placebo/adalimumab 40 mg eow (adalimumab from Week 12)", "value": 51, "unit": "%"}, {"measurement": "Percentage of Patients Achieving PGA “Clear” or “Almost Clear”", "setting": "[2]; Week 60, adalimumab 40 mg eow", "value": 44, "unit": "%"}, {"measurement": "Percentage of Patients Achieving PGA “Clear” or “Almost Clear”", "setting": "[2]; Week 60, adalimumab 40 mg weekly", "value": 52, "unit": "%"}, {"measurement": "Percentage of Patients Achieving PGA “Clear” or “Almost Clear”", "setting": "[2]; Week 60, placebo/adalimumab 40 mg eow (adalimumab from Week 12)", "value": 45, "unit": "%"}, {"measurement": "PGA “Clear” or “Almost Clear”", "setting": "[2]; baseline PASI ≧10 and DLQI >10, 40 mg eow, Week 12", "value": "62 % of Patients"}, {"measurement": "PGA “Clear” or “Almost Clear”", "setting": "[2]; baseline PASI ≧10 and DLQI >10, 40 mg eow, Week 24", "value": "69 % of Patients"}, {"measurement": "PGA “Clear” or “Almost Clear”", "setting": "[2]; baseline PASI ≧10 and DLQI >10, 40 mg eow, Week 36", "value": "65 % of Patients"}, {"measurement": "PGA “Clear” or “Almost Clear”", "setting": "[2]; baseline PASI ≧10 and DLQI >10, 40 mg eow, Week 60", "value": "54 % of Patients"}, {"measurement": "PGA “Clear” or “Almost Clear”", "setting": "[2]; baseline PASI ≧10 and DLQI >10, 40 mg weekly, Week 12", "value": "70 % of Patients"}, {"measurement": "PGA “Clear” or “Almost Clear”", "setting": "[2]; baseline PASI ≧10 and DLQI >10, 40 mg weekly, Week 24", "value": "74 % of Patients"}, {"measurement": "PGA “Clear” or “Almost Clear”", "setting": "[2]; baseline PASI ≧10 and DLQI >10, 40 mg weekly, Week 36", "value": "65 % of Patients"}, {"measurement": "PGA “Clear” or “Almost Clear”", "setting": "[2]; baseline PASI ≧10 and DLQI >10, 40 mg weekly, Week 60", "value": "52 % of Patients"}, {"measurement": "PGA “Clear” or “Almost Clear”", "setting": "[2]; baseline PASI ≧10 and DLQI >10, placebo/adalimumab 40 mg eow, Week 24", "value": "33 % of Patients"}, {"measurement": "PGA “Clear” or “Almost Clear”", "setting": "[2]; baseline PASI ≧10 and DLQI >10, placebo/adalimumab 40 mg eow, Week 36", "value": "44 % of Patients"}, {"measurement": "PGA “Clear” or “Almost Clear”", "setting": "[2]; baseline PASI ≧10 and DLQI >10, placebo/adalimumab 40 mg eow, Week 60", "value": "39 % of Patients"}, {"measurement": "PGA “Clear” or “Almost Clear”", "setting": "[2]; dosage escalation group (eow to 40 mg weekly, n = 30), Week 60", "value": 20, "unit": "%"}, {"measurement": "PGA “Clear”/“Almost Clear”", "setting": "[2]; no prior use", "value": 44, "unit": "%"}, {"measurement": "PGA “Clear”/“Almost Clear”", "setting": "[2]; prior biologic use", "value": 38, "unit": "%"}, {"measurement": "PGA “Clear”/“Almost Clear”", "setting": "[2]; prior systemic use", "value": 47, "unit": "%"}, {"measurement": "patients who achieved at least PASI 50", "setting": "[3]; 40 mg weekly, Week 12", "value": 80, "unit": "%"}, {"measurement": "PASI 50 response", "setting": "[3]; Patient 1", "value": "non-responder"}, {"measurement": "time at which PASI 50 was achieved", "setting": "[3]; Patient 2", "value": "≤ 8", "unit": "Week"}, {"measurement": "time at which PASI 75 was reached", "setting": "[3]; Patient 2", "value": 12, "unit": "Week"}, {"measurement": "time at which PASI 50 was achieved", "setting": "[3]; Patient 3", "value": "≤ 4", "unit": "Week"}, {"measurement": "time at which PASI 50 was achieved", "setting": "[3]; Patient 4", "value": "≤ 2", "unit": "Week"}, {"measurement": "time at which PASI 75 was reached", "setting": "[3]; Patient 4", "value": 4, "unit": "Week"}, {"measurement": "time at which PASI 50 was achieved", "setting": "[3]; Patient 5", "value": "≤ 12", "unit": "Week"}, {"measurement": "PASI", "setting": "[3]; Week 2, individual patients 1-5 (c1-c5), weekly adalimumab", "value": "23.4 and 23.6 and 21.6 and 11.2 and 22.9"}, {"measurement": "PASI", "setting": "[3]; Week 4, individual patients 1-5 (c1-c5), weekly adalimumab", "value": "26.7 and 20.1 and 8.70 and 7.00 and 23.6"}, {"measurement": "PASI", "setting": "[3]; Week 8, individual patients 1-5 (c1-c5), weekly adalimumab", "value": "18.2 and 12.3 and 8.40 and 19.6"}, {"measurement": "PASI", "setting": "[3]; Week 12, individual patients 1-5 (c1-c5), weekly adalimumab", "value": "21.2 and 6.30 and 3.3 and 7.10 and 15.2"}, {"measurement": "% Improvement in PASI from baseline to Week 12", "setting": "[3]; individual patients 1-5 (c1-c5), weekly adalimumab", "value": "6% and 82% and 93% and 52% and 53%"}]}]}
